{"source": "patent US6559137B1", "about": "(priority 1997, dated 2003)", "key": {"[1]": {"settings": "both, Sprague-Dawley, rat, in vivo, po"}, "[2]": {"settings": "dog, in vivo, po"}, "[3]": {"experiment": "in vivo", "settings": "both, Sprague-Dawley, rat, po"}}, "note": "Where two headings read alike, the source gives them in different places."}
{"smiles": "CC(C)CN(C[C@@H](O)[C@H](Cc1ccccc1)NC(=O)O[C@H]1CCOC1)S(=O)(=O)c1ccc(N)cc1", "note": "[VX-478]", "values": [{"measurement": "AUC", "setting": "[1]", "value": "16200 ± 1800", "unit": "ng·h/mL"}, {"measurement": "AUC", "setting": "[2]", "value": "23500 ± 7400", "unit": "ng·h/mL"}, {"measurement": "Cmax", "setting": "[2]", "value": "6800 ± 1100", "unit": "ng/mL"}, {"measurement": "Tmax", "setting": "[2]", "value": "1.0 ± 0.8", "unit": "h"}, {"measurement": "AUC", "setting": "[3]", "value": "29600 ± 5800", "unit": "ng·h/mL"}]}
